Test results taken from patent US9358276B2, “Methods of diagnosing and treating small intestinal bacterial overgrowth (SIBO) and SIBO-related conditions” (Cedars-Sinai Medical Center, priority 1999, dated 2016).

Assays:
Format in all cases: in vivo, human
[1] = tested on: rapid upper gut transit and diarrhea; test: Continued pre-meal oleate/oleic acid treatment: diarrhea, stool output, symptoms
Text: Continuing oleic acid treatment at home was offered to Aresponders≅ (i.e., patients who experienced a greater than 100% increase in baseline transit time with 3.2 g oleic acid). Of the 36 responders out of the original 45 patients, 18 provided records of stool volume and frequency on- and off-treatment for comparison. The inconvenient and unappealing nature of stool collection and measurement were the primary reasons reported by responders who chose not to participate in stool collection. After completing a set of three preliminary breath hydrogen tests, each participating responder was asked to refrain from taking oleic acid for two days in order to measure off-treatment stool output for a 24-hour period. Patients were issued a stool pattern record form and a stool collection container with graduated volume markings to record the frequency and volume of bowel movements. After two days without oleic acid, each patient took 3.2 g of oleic acid mixed with 25 mL of Ensure emulsion three times a day, 30 minutes before breakfast, lunch and dinner. After taking oleic acid for two days, patients recorded stool output for another 24-hour period. With this oleic acid emulsion treatment, stool frequency decreased from 6.9±0.8 to 5.4±0.9 bowel movements per 24-hour period (p<0.05), and stool volume decreased from 1829.0±368.6 to 1322.5±256.9 per 24-hour period (p<0.05).
The patient was a person with a history of adolescent-onset, persistent diarrhea. […] They presented with complaints of excessive gas, postprandial bloating, diarrhea and urgency, and 3 to 7 liquid bowel movements per day. Their upper gut transit times were (min) 30 (0 g oleic acid), 117 (1.6 g oleic acid) and 101 (3.2 g oleic acid).

SIBO [2] = test: Neomycin treatment of SLE subjects with SIBO
Description: Fifteen of the 202 (7.4%) subjects in the database had been diagnosed with SLE. Of these 15 subjects, 13 (87%) had bacterial overgrowth, as indicated by LBHT. Four of the 15 subjects with SLE returned for follow-up LBHT and questionnaire after treatment with neomycin (500 mg twice daily for 10 days). […] (Table 3).

SIBO [3] = test: Case: depression with SIBO, neomycin; conditions: one patient
Text: A person presented with bloating, gas, abdominal distention, and cramping for a period of 3 years prior to LBHT. Symptoms of depression first appeared concurrently with the first appearance of bowel symptoms, and were serious enough that psychiatric hospitalization had been considered by their attending psychiatrist. The subject reported feeling very depressed and was convinced that life was not worth living. The subject=s LBHT indicated the presence of a SIBO condition. […] The subject had been prescribed eight different anti-depressant medications, all of which were discontinued as a result of their improvement.

SIBO [4] = test: Neomycin treatment of subjects with IBS and SIBO (LBHT, VAS)
Description: Subjects were tested after an overnight fast. At time zero, each subject swallowed 15 ml of Chronulac formula, delivering 10 g of lactulose; every 5-20 min thereafter, for 2-4 hours, a 50 cm^3 end-expiratory breath sample was taken with an airtight sampling bag. Each breath sample was then analyzed for hydrogen content with a gas chromatograph (Quintron Model DP, Quintron Instrument Co., Division of E.F. Brewer Co, Menomonee Falls, Wis. 53051), standardized using a QuinGas standard as instructed by the manufacturer. Hydrogen peaks were plotted before and after an antimicrobial treatment regimen for comparison. The normal range for the second hydrogen peak was 0 to 20 ppm.
The two hundred-two (202) human subjects were assessed for SIBO with LBHT. Of the 202 subjects in the database, 95 claimed to have been given a diagnosis of IBS. […] After these 22 subjects were excluded, 73 subjects remained.
Of the 124, 92 (74%) were positive for SIBO. […] Therefore, the incidence of SIBO among the 110 untreated subjects was 92 (84%), showing a strong association between a suspected diagnosis of IBS and the presence of SIBO. After neomycin treatment (500 mg twice daily for ten days), 23 of these 92 returned for follow-up testing. On a visual analog scores (VAS), subjects were asked to rate their degree of post-treatment improvement. These 23 subjects reported a 60±31% improvement, although 17 had only partial eradication of SIBO, based on their LBHT results. (FIG. 1).
There was a likely selection bias in the database due to the fact that subjects were referred for LBHT, because their physicians suspected they had SIBO. To correct for this bias, a pilot study was also conducted looking at the incidence of bacterial overgrowth in patients with IBS. […] Eight human subjects with a suspected diagnosis of IBS, based on the Rome criteria, were tested for SIBO, using LBHT as described in Example 2. […] Six of the 7 subjects testing positive for SIBO returned approximately 10 days after completion of a 10 day course of neomycin as described above. […] The six subjects reported an average improvement in their IBS symptoms of 65±28% (Range: 20-100%) on VAS scoring.

SIBO [5] = test: Neomycin treatment of chronic fatigue syndrome subjects with SIBO
Description: Thirty of 202 subjects in the database ([…]) had received a diagnosis of chronic fatigue syndrome. Of these 30 subjects, 21 (70%) had SIBO as indicated by LBHT, but four out of the nine without SIBO had recently taken antibiotics. Therefore, the prevalence of SIBO was 21 out of 26 (81%) subjects with a diagnosis of CFS. After treatment with neomycin (500 mg twice daily, 10-day course), nine of the 21 subjects diagnosed with CFS, returned for follow-up LBHT and questionnaire. […] (Table 2).

Row | Compound | diarrhea ([1]; all five patients, prolonged ingestion 15-30 minutes prior to meals) | chronic abdominal pain, post prandial bloating and nausea ([1]; patient with Crohn's disease) | weight gained ([1]; patient with Crohn's disease) [lbs] | postprandial dumping syndrome ([1]; patient with vagotomy and antrectomy) | VAS score Fatigue, After Antibiotic (SIBO [2]; four SLE patients) | VAS score Gas, After Antibiotic (SIBO [2]; four SLE patients) | VAS score Joint Pains, After Antibiotic (SIBO [2]; four SLE patients) | VAS score Bloating, After Antibiotic (SIBO [2]; four SLE patients, neomycin 500 mg twice daily for 10 days) | LBHT result after treatment (SIBO [2]; four SLE subjects) | depression (SIBO [3]) | degree of post-treatment improvement (VAS) (SIBO [4]; 23 IBS subjects with SIBO, 500 mg twice daily for ten days) [%] | subjects with only partial eradication of SIBO (LBHT) (SIBO [4]; of the 23 returning subjects) | average improvement in IBS symptoms on VAS scoring (SIBO [4]; pilot study, six subjects) [%] | post-treatment breath hydrogen peaks (SIBO [4]; pilot study, six subjects) | range of improvement in IBS symptoms on VAS scoring (SIBO [4]; pilot study, six subjects) | eradication of SIBO (LBHT) (SIBO [4]; pilot study, six subjects, 10 day course) | eradication of SIBO (LBHT) (SIBO [5]; all nine CFS subjects) | VAS score Fatigue, After Antibiotic (SIBO [5]; nine CFS patients) | VAS score Bloating, After Antibiotic (SIBO [5]; nine CFS patients, neomycin 500 mg twice daily, 10-day course)
1 | CCCCCCCC/C=C\CCCCCCCC(=O)[O-].[Na+] [oleate, sodium oleate] | reduced diarrhea | complete resolution | 22 | resolution of postprandial dumping syndrome |  |  |  |  |  |  |  |  |  |  |  |  |  |  | 
2 | neomycin |  |  |  |  | 3.5 ± 1.4 | 1.9 ± 1.7 | 0.5 ± 0.6 | 1.3 ± 1.3 | negative for SIBO | completely resolved | 60±31 | 17 | 65±28 | 0-20 ppm | 20-100% | completely eradicated | at least partially eradication of SIBO | 3.5 ± 1.4 | 2.3 ± 1.7
